Source: patent publication US20240067693A1, “POLYPEPTIDES AND USES THEREOF” (MEDIMMUNE LIMITED, priority 2020, published 2024)
Numbered stars: 1 amine (or outer) side, 2 acyl side, 3 side chain; on linkers, the order of the positions; unused ones are H or OH. Bridge positions count the residues as written; N and C are the ends. Square brackets hold non-standard residues; d marks the D form. Side chains are listed from the residue outwards. Peptide text beside a SMILES is read from it. * marks the point of attachment. C18 diacid = O=C(O)CCCCCCCCCCCCCCCCC(=O)*; γGlu = O=C(O)[C@H](CCC(=O)[*:2])N[*:1]; Aib = CC(C)(N)C(=O)O

What was measured:
[1] = biological target: T1, human amylin receptor (calcitonin receptor co-expressed with receptor activity modifying protein, RAMP3) (hAMYR3) (Homo sapiens, UniProt O60896+P30988); assay: cAMP production in 1321N1 cells with stable recombinant expression of human amylin receptor (hAMYR3); assay type: cell-based; conditions: for Ratio (selectivity hAMYR vs hCTR, ratio of EC50 values at the two receptors): EC50 hCTR / EC50 hAMYR3; for EC50: cAMP, 1321N1 cells, assay buffer with 0.1% BSA, read-out: EC50 (pM) hAMYR3
T1 construct: expressed in transfected cells
T1 sequence (P30988 25-474): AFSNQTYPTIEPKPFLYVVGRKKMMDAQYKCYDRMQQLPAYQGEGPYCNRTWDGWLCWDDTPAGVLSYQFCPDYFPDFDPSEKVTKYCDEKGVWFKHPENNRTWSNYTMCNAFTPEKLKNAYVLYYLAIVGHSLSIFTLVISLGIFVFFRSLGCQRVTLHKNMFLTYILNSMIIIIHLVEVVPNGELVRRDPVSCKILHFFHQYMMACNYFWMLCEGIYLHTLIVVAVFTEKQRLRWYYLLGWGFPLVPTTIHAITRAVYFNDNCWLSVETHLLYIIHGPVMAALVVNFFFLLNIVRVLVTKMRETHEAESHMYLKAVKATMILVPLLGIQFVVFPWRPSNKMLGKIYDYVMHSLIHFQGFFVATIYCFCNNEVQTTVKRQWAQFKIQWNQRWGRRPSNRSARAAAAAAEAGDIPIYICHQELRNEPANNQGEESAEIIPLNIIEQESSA
T1 sequence (O60896 24-148 partner): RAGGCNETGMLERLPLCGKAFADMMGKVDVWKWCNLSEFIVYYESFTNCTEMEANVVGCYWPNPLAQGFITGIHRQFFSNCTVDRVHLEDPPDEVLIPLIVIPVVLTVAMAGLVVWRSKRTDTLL
Summary of the method: (§1)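 Thawed cells in HBSS/0.1% BSA/25 mM HEPES pH 7.4 with 0.5 mM IBMX were incubated with peptides 30 min at room temperature; cAMP read by HTRF. EC50 from 4-parameter fit of % activation relative to maximal amylin or calcitonin effect.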

[2] = biological target: T2, human calcitonin receptor (hCTR) (Homo sapiens, UniProt P30988); assay: cAMP production in 1321N1 cells with stable recombinant expression of human calcitonin receptor (hCTR); assay type: cell-based; conditions: cAMP, 1321N1 cells, assay buffer with 0.1% BSA; read-out: EC50 (pM) hCTR
T2 construct: expressed in transfected cells
T2 sequence (P30988 25-474): T1 sequence (P30988 25-474)
Summary of the method: as §1

Ratio (selectivity hAMYR vs hCTR, ratio of EC50 values at the two receptors) [1] | EC50 [1] [pM] | EC50 [2] [pM] | Compound
4.1 | 612 | 2510 | CC[C@H](C)[C@H](NC(=O)[C@@H]1CCCN1C(=O)CNC(=O)[C@H](Cc1ccccc1)NC(=O)[C@H](CC(N)=O)NC(=O)[C@@H]1CCCN1C(=O)[C@H](CO)NC(=O)[C@H](CO)NC(=O)[C@H](Cc1c[nH]cn1)NC(=O)C(C)(C)NC(=O)[C@H](CC(C)C)NC(=O)[C@H](Cc1ccccc1)NC(=O)[C@H](CC(N)=O)NC(=O)[C@H](C)NC(=O)[C@H](CC(C)C)NC(=O)[C@H](CCCNC(=N)N)NC(=O)[C@H](CCC(N)=O)NC(=O)[C@@H](NC(=O)[C@H](C)NC(=O)[C@@H]1CSSC[C@H](NC(=O)[C@H](CCCCN)NC(=O)[C@@H](N)CCCCNC(=O)CC[C@H](NC(=O)CCCCCCCCCCCCCCCCC(=O)O)C(=O)O)C(=O)N[C@@H](CC(N)=O)C(=O)N[C@@H]([C@@H](C)O)C(=O)N[C@@H](C)C(=O)N[C@@H]([C@@H](C)O)C(=O)N1)[C@@H](C)O)C(=O)N[C@@H](CC(C)C)C(=O)N1CCC[C@H]1C(=O)N1CCC[C@H]1C(=O)N[C@H](C(=O)N[C@@H](CCC(=O)O)C(=O)N[C@H](C(=O)NCC(=O)N[C@@H](CO)C(=O)N[C@@H](CC(N)=O)C(=O)N[C@H](C(=O)N[C@@H](Cc1ccc(O)cc1)C(N)=O)[C@@H](C)O)C(C)C)[C@@H](C)O [Peptide 138] (H-K([γGlu-C18 diacid])KCNTATCATQRLANFL[Aib]HSSPNFGPILPPTEVGSNTY-NH2; disulfide 3-8)
3.7 | 285 | 1040 | CC[C@H](C)[C@H](NC(=O)[C@@H]1CCCN1C(=O)CNC(=O)[C@H](Cc1ccccc1)NC(=O)[C@H](CC(N)=O)NC(=O)[C@@H]1CCCN1C(=O)[C@H](CO)NC(=O)[C@H](CO)NC(=O)[C@H](Cc1c[nH]cn1)NC(=O)C(C)(C)NC(=O)[C@H](CC(C)C)NC(=O)[C@H](Cc1ccccc1)NC(=O)[C@H](CC(N)=O)NC(=O)[C@H](C)NC(=O)[C@H](CC(C)C)NC(=O)[C@H](CCCNC(=N)N)NC(=O)[C@H](CCC(N)=O)NC(=O)[C@@H](NC(=O)[C@H](C)NC(=O)[C@@H]1CSSC[C@H](NC(=O)[C@H](CCCCN)NC(=O)[C@@H](N)CCCCNC(=O)CC[C@H](NC(=O)CCCCCCCCCCCCCCCCC(=O)O)C(=O)O)C(=O)N[C@@H](CC(N)=O)C(=O)N[C@@H]([C@@H](C)O)C(=O)N[C@@H](C)C(=O)N[C@@H]([C@@H](C)O)C(=O)N1)[C@@H](C)O)C(=O)N[C@@H](CC(C)C)C(=O)N1CCC[C@H]1C(=O)N1CCC[C@H]1C(=O)N[C@H](C(=O)N[C@@H](CC(N)=O)C(=O)N[C@H](C(=O)NCC(=O)N[C@@H](CO)C(=O)N[C@@H](CCC(=O)O)C(=O)N[C@H](C(=O)N[C@@H](Cc1ccc(O)cc1)C(N)=O)[C@@H](C)O)C(C)C)[C@@H](C)O [Peptide 139] (H-K([γGlu-C18 diacid])KCNTATCATQRLANFL[Aib]HSSPNFGPILPPTNVGSETY-NH2; disulfide 3-8; N-terminus assumed)

Continued, compound first:

Compound | Ratio (selectivity hAMYR vs hCTR, ratio of EC50 values at the two receptors) [1] | EC50 [1] [pM] | EC50 [2] [pM]
CC[C@H](C)[C@H](NC(=O)[C@@H]1CCCN1C(=O)CNC(=O)[C@H](Cc1ccccc1)NC(=O)[C@H](CC(N)=O)NC(=O)[C@H](CC(N)=O)NC(=O)[C@H](CO)NC(=O)[C@H](CO)NC(=O)[C@H](Cc1c[nH]cn1)NC(=O)C(C)(C)NC(=O)[C@H](CC(C)C)NC(=O)[C@H](Cc1ccccc1)NC(=O)[C@H](CC(N)=O)NC(=O)[C@H](C)NC(=O)[C@H](CC(C)C)NC(=O)[C@H](CCCNC(=N)N)NC(=O)[C@H](CCC(N)=O)NC(=O)[C@@H](NC(=O)[C@H](C)NC(=O)[C@@H]1CSSC[C@H](NC(=O)[C@H](CCCCN)NC(=O)[C@@H](N)CCCCNC(=O)CC[C@H](NC(=O)CCCCCCCCCCCCCCCCC(=O)O)C(=O)O)C(=O)N[C@@H](CC(N)=O)C(=O)N[C@@H]([C@@H](C)O)C(=O)N[C@@H](C)C(=O)N[C@@H]([C@@H](C)O)C(=O)N1)[C@@H](C)O)C(=O)N[C@@H](CC(C)C)C(=O)N1CCC[C@H]1C(=O)N1CCC[C@H]1C(=O)N[C@H](C(=O)N1CCC[C@H]1C(=O)N[C@H](C(=O)NCC(=O)N[C@@H](CO)C(=O)N[C@@H](CC(N)=O)C(=O)N[C@H](C(=O)N[C@@H](Cc1ccc(O)cc1)C(N)=O)[C@@H](C)O)C(C)C)[C@@H](C)O [Peptide 134] (H-K([γGlu-C18 diacid])KCNTATCATQRLANFL[Aib]HSSNNFGPILPPTPVGSNTY-NH2; disulfide 3-8; N-terminus assumed) | 7.9 | 281 | 2220
CC[C@H](C)[C@H](NC(=O)[C@@H]1CCCN1C(=O)CNC(=O)[C@H](Cc1ccccc1)NC(=O)[C@H](Cc1c[nH]cn1)NC(=O)[C@H](CC(N)=O)NC(=O)[C@H](CO)NC(=O)[C@H](CO)NC(=O)[C@H](Cc1c[nH]cn1)NC(=O)C(C)(C)NC(=O)[C@H](CC(C)C)NC(=O)[C@H](Cc1ccccc1)NC(=O)[C@H](CC(N)=O)NC(=O)[C@H](C)NC(=O)[C@H](CC(C)C)NC(=O)[C@H](CCCNC(=N)N)NC(=O)[C@H](CCC(N)=O)NC(=O)[C@@H](NC(=O)[C@H](C)NC(=O)[C@@H]1CSSC[C@H](NC(=O)[C@H](CCCCN)NC(=O)[C@@H](N)CCCCNC(=O)CC[C@H](NC(=O)CCCCCCCCCCCCCCCCC(=O)O)C(=O)O)C(=O)N[C@@H](CC(N)=O)C(=O)N[C@@H]([C@@H](C)O)C(=O)N[C@@H](C)C(=O)N[C@@H]([C@@H](C)O)C(=O)N1)[C@@H](C)O)C(=O)N[C@@H](CC(C)C)C(=O)N1CCC[C@H]1C(=O)N1CCC[C@H]1C(=O)N[C@H](C(=O)N[C@@H](CC(N)=O)C(=O)N[C@H](C(=O)NCC(=O)N[C@@H](CO)C(=O)N[C@@H](CC(N)=O)C(=O)N[C@H](C(=O)N[C@@H](Cc1ccc(O)cc1)C(N)=O)[C@@H](C)O)C(C)C)[C@@H](C)O [Peptide 135] (H-K([γGlu-C18 diacid])KCNTATCATQRLANFL[Aib]HSSNHFGPILPPTNVGSNTY-NH2; disulfide 3-8; N-terminus assumed) | 1.2 | 296 | 345
CC[C@H](C)[C@H](NC(=O)[C@@H]1CCCN1C(=O)CNC(=O)[C@H](Cc1ccccc1)NC(=O)[C@H](CC(N)=O)NC(=O)[C@H](CC(N)=O)NC(=O)[C@H](CO)NC(=O)[C@H](CO)NC(=O)[C@H](Cc1c[nH]cn1)NC(=O)C(C)(C)NC(=O)[C@H](CC(C)C)NC(=O)[C@H](Cc1ccccc1)NC(=O)[C@H](CC(N)=O)NC(=O)[C@H](C)NC(=O)[C@H](CC(C)C)NC(=O)[C@H](CCCNC(=N)N)NC(=O)[C@H](CCC(N)=O)NC(=O)[C@@H](NC(=O)[C@H](C)NC(=O)[C@@H]1CSSC[C@H](NC(=O)[C@H](CCCCN)NC(=O)[C@@H](N)CCCCNC(=O)CC[C@H](NC(=O)CCCCCCCCCCCCCCCCC(=O)O)C(=O)O)C(=O)N[C@@H](CC(N)=O)C(=O)N[C@@H]([C@@H](C)O)C(=O)N[C@@H](C)C(=O)N[C@@H]([C@@H](C)O)C(=O)N1)[C@@H](C)O)C(=O)N[C@@H](CC(C)C)C(=O)N1CCC[C@H]1C(=O)N1CCC[C@H]1C(=O)N[C@H](C(=O)N[C@@H](CC(N)=O)C(=O)N[C@H](C(=O)NCC(=O)N[C@@H](CO)C(=O)N[C@@H](CC(N)=O)C(=O)N[C@H](C(=O)N1CCC[C@H]1C(N)=O)[C@@H](C)O)C(C)C)[C@@H](C)O [Peptide 136] (H-K([γGlu-C18 diacid])KCNTATCATQRLANFL[Aib]HSSNNFGPILPPTNVGSNTP-NH2; disulfide 3-8; N-terminus assumed) | 0.8 | 122 | 101
CC[C@H](C)[C@H](NC(=O)[C@@H]1CCCN1C(=O)CNC(=O)[C@H](Cc1ccccc1)NC(=O)[C@H](CC(N)=O)NC(=O)[C@H](CCCNC(=N)N)NC(=O)[C@H](CO)NC(=O)[C@H](CO)NC(=O)[C@H](Cc1c[nH]cn1)NC(=O)C(C)(C)NC(=O)[C@H](CC(C)C)NC(=O)[C@H](Cc1ccccc1)NC(=O)[C@H](CC(N)=O)NC(=O)[C@H](C)NC(=O)[C@H](CC(C)C)NC(=O)[C@H](CCCNC(=N)N)NC(=O)[C@H](CCC(N)=O)NC(=O)[C@@H](NC(=O)[C@H](C)NC(=O)[C@@H]1CSSC[C@H](NC(=O)[C@H](CCCCN)NC(=O)[C@@H](N)CCCCNC(=O)CC[C@H](NC(=O)CCCCCCCCCCCCCCCCC(=O)O)C(=O)O)C(=O)N[C@@H](CC(N)=O)C(=O)N[C@@H]([C@@H](C)O)C(=O)N[C@@H](C)C(=O)N[C@@H]([C@@H](C)O)C(=O)N1)[C@@H](C)O)C(=O)N[C@@H](CC(C)C)C(=O)N1CCC[C@H]1C(=O)N1CCC[C@H]1C(=O)N[C@H](C(=O)N[C@@H](CC(N)=O)C(=O)N[C@H](C(=O)NCC(=O)N[C@@H](CO)C(=O)N[C@@H](CC(N)=O)C(=O)N[C@H](C(=O)N[C@@H](Cc1ccc(O)cc1)C(N)=O)[C@@H](C)O)C(C)C)[C@@H](C)O [Peptide 137] (H-K([γGlu-C18 diacid])KCNTATCATQRLANFL[Aib]HSSRNFGPILPPTNVGSNTY-NH2; disulfide 3-8; N-terminus assumed) | 6.3 | 238 | 1500
